From patent publication US20170143009A1, “ANIMAL FEED AND AQUAFEED” (DUPONT NUTRITION BIOSCIENCES APS, priority 2014, published 2017)

Key:
Pacific white shrimp = assay: 8-week feeding trial, growth performance and feed utilisation; assay type: in vivo, Litopennaeus vannamei; conditions: 8 weeks; for Final individual body weight gain: 5 replicates
Experimental: The feeding experiment (8 weeks) on Pacific white shrimp was conducted at the shrimp farm facilities of Prince of Songkhla University, Pattani Campus in Thailand. The shrimp rearing unit was made up of fiberglass aquarium of 235 L. The parameters to assess the water quality i.e. salinity, dissolved oxygen (DO), temperature and pH were measured daily using standard protocols. There was a weekly monitoring of NH3 and NO2. Siphoning of left-over feed and faeces and exchange of 10% of water was done daily.
Pacific white leg shrimp (Litopennaeus vannamei) were obtained from a standard farm in Pattani province. Shrimp were acclimatized in a concrete pond for 7 days prior to the start of the experiment. It was ensured that the juveniles were not infested with bacteria, parasites and viruses. […] They were sorted and allotted randomly for a particular feed group. 30 shrimps were introduced into each of the 235 L fibreglass aquarium (5 aquariums per feed group). It was confirmed that there was no significant difference in the initial weights of the groups. They were grown in the system for 8 weeks.
Experimental shrimp feeds were used.
In the present study, positive control was based on 9% fish meal whereas negative control with or without betaine products) was based on 4% fish meal as indicated in the feed formulation in table 2.
The experimental feeds were hand fed everyday; four times a day. Feed consumption as well as amount of unconsumed feed were monitored (weighed) daily.
Daily feed was based on feed guide x number of surviving animals, and was predetermined one week in advance, but was adjusted on a daily basis if significant amount of feed remained non eaten or if all feed was consumed, in order to avoid underfeeding or overfeeding. The animals were weighed every 2 weeks—all animals in each of the aquaria were weighed.
The bulk weights of shrimp were recorded from each experimental unit at the start of the feeding period. Weight measurement was examined every two weeks by sampling 10% of white shrimp in each net cage (at week 2, 4, 6, and 8). At the end of the study (8 weeks), all shrimp in each net cage were weighed. The number of survivors was also checked. The determination of weight gain was based on the total biomass in each net cage considering the number of survivors.
Survival (%)=100 (Final shrimp number/Initial shrimp number)
Weight gain, WG (%)=[[(Mean final bodyweight)−(Mean initial body weight)]/Mean initial body weight]×100.
Rate of feed intake (%/BW/day)=Feed intake (g)×100/[((mean final BW+mean initial BW)/2)×((number of final shrimp+number of initial shrimp)/2)×time (days)].
Feed conversion ratio, FCR=Dry feed intake (g)/[Final biomass (g)−Initial biomass (g)+Biomass of the dead shrimp (g)].

[1] = pure form; water and lower alcohols; cited from earlier work
[2] = NC feed (4% fish meal) + 0.5% uncoated betaine
[3] = NC feed (4% fish meal) + 1% uncoated betaine

With `C[N+](C)(C)CC(=O)[O-]` [Uncoated Betafin, trimethylglycine] the “Final individual body weight gain” value (Pacific white shrimp; NC feed (4% fish meal) + 0.5% uncoated betaine (5 kg/tonne of feed)) was 5.58 ± 0.29ab g/shrimp, the “FCR (feed conversion ratio)” value (Pacific white shrimp; [2]) was 1.83 ± 0.09a and the Feed intake (Pacific white shrimp; [2]) was 7.60 ± 0.51b. For the same compound, the Survival (Pacific white shrimp; [2]) was 95.8 ± 4.2abcd %, the “Final individual body weight gain” value (Pacific white shrimp; NC feed (4% fish meal) + 1% uncoated betaine (10 kg/tonne of feed)) was 6.06 ± 0.82a g/shrimp and the “FCR (feed conversion ratio)” value (Pacific white shrimp; [3]) was 1.85 ± 0.21a. For the same compound, the Feed intake (Pacific white shrimp; [3]) was 8.46 ± 0.48a, the Survival (Pacific white shrimp; [3]) was 95.0 ± 3.3abcd % and the Feed intake (Pacific white shrimp; NC feed (4% fish meal) + 1% uncoated betaine, listed as betaine) was “significantly higher than positive control”. For the same compound, the Solubility [1] was “readily soluble in water and lower alcohols”.
